According to ChEMBL document CHEMBL4004820 (J Med Chem, 2017):

Key:
[1] = test system: MDCK; test: Cytotoxicity against MDCK cells measured after 72 hrs et staining-based microscopic analysis; assay type: cell-based, Canis lupus familiaris; settings: dog
[2] = Antiviral activity against Influenza A virus (A/WSN/1933(H1N1)) expressing wild-type M2 proton channel infected in MDCK cells assessed as reduction in cytopathic effect after 48 hrs by crystal violet staining-based microscopic analysis; assay type: functional, cell-based
[3] = test system: Influenza A virus (A/Udorn/307/1972(H3N2))
[4] = test system: Influenza A virus (A/Udorn/307/1972(H3N2)); remark: listed apart in the source
[5] = test system: Influenza A virus (A/Udorn/307/1972(H3N2)); remark: listed apart in the source
[6] = Binding affinity to Influenza virus A (A/Udorn/72 (H3N2)) M2 protein at pH 7.5 in presence of KCl by electrophysiology method; design: species or system Influenza A virus (A/udorn/1972(H3N2))
[7] = test system: Influenza A virus (A/California/07/2009(H1N1)); test: Inhibition of full-length Influenza A virus (A/California/07/2009(H1N1)) M2 proton channel expressed in HEK cells assessed as inhibition of low-pH-dependent inward proton currents at 100 uM and pH 5.5 measured after 3 mins in presence of CaCl2 by electrophysiology method relative to control; assay type: cell-based
[8] = test system: Influenza A virus (A/California/07/2009(H1N1)); test: Inhibition of full-length Influenza A virus (A/California/07/2009(H1N1)) M2 proton channel expressed in HEK cells assessed as inhibition of low-pH-dependent inward proton currents at 100 uM and pH 5.5 measured after 30 mins in presence of CaCl2 by electrophysiology method relative to control; assay type: cell-based

## CCC1(N)C2CC3CC(C2)CC1C3 (stereo not drawn)
[1]
  CC50: > 100 µM
[2]
  IC50: Not Active
[3]
  -TdeltaS: -1.38 kcal/mol

## NC12CC3CC(CC(C3)C1)C2 [AMANTADINE]
[1]
  CC50: > 100 µM
[4]
  Activity: 32 degree
[2]
  IC50: Not Active
[3]
  -TdeltaS: -1.11 kcal/mol
[5]
  Activity: 22 degree
[6]
  Kd: 9 µM

## CC1(N)C2CC3CC(C2)CC1C3 (stereo not drawn)
[1]
  CC50: 25.6 µM
[2]
  IC50: Not Active
[3]
  -TdeltaS: -1.51 kcal/mol

## CCCC1(N)C2CC3CC(C2)CC1C3 (stereo not drawn)
[1]
  CC50: > 100 µM
[4]
  Activity: 32 degree
[2]
  IC50: Not Active
[3]
  -TdeltaS: -0.932 kcal/mol
[5]
  Activity: 22 degree

## NC1(C23CC4CC(CC(C4)C2)C3)CCCCC1
[1]
  CC50: > 100 µM
[2]
  IC50: Not Active

## CC12CC3CC(CC(C3)C13CCCN3)C2 (stereo not drawn)
[1]
  CC50: > 100 µM
[2]
  IC50: Not Active
[3]
  -TdeltaS: -3 kcal/mol

## CN1CCCC12C1CC3CC(C1)CC2C3 (stereo not drawn)
[1]
  CC50: > 100 µM
[2]
  IC50: Not Active
[3]
  -TdeltaS: -4.46 kcal/mol

## C1CNC2(C1)C1CC3CC(C1)CC2C3 (stereo not drawn)
[1]
  CC50: > 100 µM
[7]
  inhibition: 4%
[2]
  IC50: Not Active
[3]
  -TdeltaS: -3.97 kcal/mol
[8]
  inhibition: 5%

## NC1C2CC3CC(C2)CC1C3 (stereo not drawn)
[1]
  CC50: 70.5 µM
[2]
  IC50: Not Active
[3]
  -TdeltaS: -0.93 kcal/mol

## CCOC(=O)C1=C[C@@H](OC(CC)CC)[C@H](NC(C)=O)[C@@H](N)C1 [OSELTAMIVIR]
[2]; Influenza A virus, MDCK, 48 h, read-out: IC50
  IC50: 0.02 µM

## NC1(C23CC4CC(CC(C4)C2)C3)CCCC1
[1]
  CC50: > 100 µM
[7]
  inhibition: 4%
[2]
  IC50: Not Active
[8]
  inhibition: 4%
